Results: patent publication US4898870A, “Pyrroloquinoline quinone compounds useful as an enzyme inhibitor” (Sogo Pharmaceutical Company Limited, priority 1986, dated 1990)
pIC50: −log10 of the molar value. Blank lines part the entries; values can stand above or below the molecule they belong to.

Key:
[1] = Acute toxicity test, mouse; settings: in vivo
Text: (§1) Generally, pyrroloquinoline quinone (hereinafter referred to as PQQ) is a novel coenzyme different from conventional coenzyme NAD(P) or flavins for oxydation-reduction and it was initially found as a coenzyme for glucose dehydrogenase of Acinetobactor group. PQQ has a concern with the oxidizing reaction of alcohols, aldehydes, glucose and amines in an organism. Further, its growth promoting effect to a certain kind of micro-organisms,animal cells, plant cells has also been reported. Further, PQQ is also presented in the blood of mammal and, while its vitamin-like physiological activity is guessed, its biological roles has not yet been known at present. However, PQQ and its derivatives constitute the ingredients of an organism and considered to be a stable and non-toxic substance. This is apparent from the result of the acute toxicity test to mouse and rat described later.
(§2) Acute toxicity test of PQQ tri(dimethylamide)

[2] = target: T1, human placental aldose reductase (Homo sapiens, UniProt P15121); test: Inhibition of human placental aldose reductase; format: biochemical; settings: human placenta enzyme
T1 construct: An enzyme solution was prepared from human placenta; from tissue; host or cells: human placenta
Description: (§3) Specifically reaction was started by adding dl-glyceraldehyde as a substrate to a reaction solution containing rat lens homogenate, Li2 SO4, NADPH2 and inhibitor, and the enzyme activity was measured by the decrease of the optical absorption of NADPH2 (optical density: OD) at 340 nm for 5 min. The solution with no addition of the substrate was used for the blank OD. The inhibiting ratio for the aldose reductase reaction by the inhibitor was determined by the following equation: [formula]
The determination of enzyme activity was same as in Test Example 1 except enzyme source was human placenta.
(§4) To a reaction solution containing the chick lens homogenate, Li2 SO4, NADPH2 and an inhibitor, was added dlglyceraldehyde as substrate to start the reaction, and the enzymatic activity was determined by measuring the decrease in optical density (OD) of NADPH2 at 340 nm after five minutes. A solution with no substrate added was used for the blank test. The inhibition rate against the aldose reductase reaction was calculated from the following equation: [formula]
An enzyme solution was prepared from human placenta, and the inhibitory action of PQQ·2K against human placental aldose reductase was measured in the same way as in Test Example 4.
An enzyme solution was prepared from human placenta, and the inhibitory action of PQQ·3Me against human placental aldose reductase was measured in the same way as in Test Example 4.
An enzyme solution was prepared from human placenta, and the inhibitory action of PQQ·2Me.Et against human placental aldose reductase was measured in the same way as in Test Example 4.

[3] = Acute toxicity test, rat; settings: in vivo
Text: as §1, §2

[4] = test system: chick lens aldose reductase; test: Inhibition of chick lens aldose reductase; format: biochemical
Description: The activity of aldose reductase was measured according to the method of Kinoshita et al. [Metabolism, 28, 462-469 (1979)] using a homogenate of chick lens.
as §4
An enzyme solution was prepared from chick lens in the same manner as in Test Example 4, and the inhibitory action of PQQ·H2 against aldose reductase was measured in the same way as in Test Example 4.
An enzyme solution was prepared from chick lens in the same manner as in Test Example 4, and the inhibitory action of PQQ·3Me against aldose reductase was measured in the same way as in Test Example 4.

[5] = test system: egg cataract induced by hydrocortisone; test: Egg cataract induced by hydrocortisone; format: in vivo, White-leghorn eggs
Description: White-leghorn eggs were incubated in a hatcher held at a temperature of 37° C. and a relative humidity of about 70%.
To the control and drug-administered groups, was administered at the air space 0.2 ml each of a solution of 0.12 mg hydrocortisone succinate (HC) in pure water on the 15th day after the start of incubation.
To the drug-administered group, was further injected PQQ 2 hours, or 2 and 5 hours, after HC administration.
The lens was extracted from each egg 48 hours after HC administration, and cataract estimation was made by the method of Nishigohri et al. [INVESTIGATIVE OPHTHALMOLOGY & VISUAL SCIENCE, 25, 1051 (1984)] according to the following standards: […]

[6] = test system: galactose-induced cataract; test: Galactose-induced cataract in rats; format: in vivo, Sprague-Dawley rats; settings: for cataract estimation: number at Grade A^- / cataract estimation: number at Grade A^0: 50% galactose feed; for cataract estimation: number at Grade A^-: 7th day; for cataract estimation: number at Grade A^0: 10th day
Description: Male, Sprague-Dawley rats weighing 55 to 65 grams were used as test animals in this experiment. These were divided into three groups (normal group, 50%-galactose feed group, and drug-administered group). The normal group was given a commercial powdery feed (CE-2 of Clea Japan Inc.), and the other two groups were given the above normal feed further containing 50% galactose, with free access thereto in all cases. To the drug-administered group, was further administered PQQ orally (30 mg/Kg) or intraperitonealy (20 mg/Kg) once a day throughout the course of test. The lens was extracted from the test animals on the 7th and 10th days after the start of experiment, and cataract estimation was made according to the following standards: […]

[7] = target: T2, bovine lens aldose reductase (Bos taurus, UniProt P16116); test: Inhibition of bovine lens aldose reductase; format: biochemical
T2 construct: A homogenate of bovine lens was centrifuged for ten minutes at 20,000 rpm under cooling; from tissue; host or cells: bovine lens (20,000 rpm supernatant of homogenate)
Description: as §3
The determination of enzyme activity was same as in Test Example 1 except enzyme source was bovine lens.
as §4
A homogenate of bovine lens was centrifuged for ten minutes at 20,000 rpm under cooling, the supernatant was collected as an enzyme solution, and the inhibitory action of PQQ against aldose reductase was measured in the same way as in Test Example 4.
A homogenate of bovine lens was centrifuged for ten minutes at 20,000 rpm under cooling, the supernatant was collected as an enzyme solution, and the inhibitory action of PQQ·H2 against bovine lens aldose reductase was measured in the same way as in Test Example 4.
An enzyme solution was prepared from chick lens in the same manner as in Test Example 9, and the inhibitory action of PQQ·3Me against bovine lens aldose reductase was measured in the same way as in Test Example 4.

[8] = PQQ 0.25 mg/egg × 1, HC 0.12 mg/egg, 48 hours after HC
[9] = PQQ 0.5 mg/egg × 1, HC 0.12 mg/egg, 48 hours after HC
[10] = PQQ 0.5 mg/egg × 2, HC 0.12 mg/egg, 48 hours after HC
[11] = PQQ 1.0 mg/egg × 1, HC 0.12 mg/egg, 48 hours after HC

SMILES: CN(C)C(=O)c1cc(C(=O)N(C)C)c2c(n1)C(=O)C(=O)c1cc(C(=O)N(C)C)[nH]c1-2 [PQQ tri(dimethylamide)]
LD50 ([1]; oral): > 5000 mg/kg | LD50 ([1]; sc, subcutaneous): > 1500 mg/kg | pIC50 [2]: 6.08 | LD50 ([3]; oral): > 5000 mg/kg | LD50 ([3]; sc, subcutaneous): > 1500 mg/kg

concentration inhibiting the activity by 100% ([4]; chick lens): 10^-4 M | pIC50 ([4]; chick lens homogenate, read-out: concentration inhibiting the aldose reductase activity by 50%): 5.30 | Inhibition Rate ([4]; inhibitor 10^-4 M/reaction soln.): 100% | Inhibition Rate ([4]; inhibitor 10^-5 M/reaction soln.): 82.1% | Inhibition Rate ([4]; inhibitor 10^-6 M/reaction soln.): 13.9% | Inhibition Rate ([4]; inhibitor 10^-7 M/reaction soln.): 0% | Inhibition Rate ([4]; inhibitor 10^-8 M/reaction soln.): 0% | pIC50 ([7]; bovine lens enzyme): 6.52 | IC100 ([7]; bovine lens, read-out: concentration inhibiting the activity by 100%): 1 µM | inhibition at 10 µM ([7]; inhibitor 10^-5 M/reaction soln., read-out: Inhibition Rate): 100% | inhibition at 1 µM ([7]; inhibitor 10^-6 M/reaction soln., read-out: Inhibition Rate): 100% | inhibition at 0.1 µM ([7]; inhibitor 10^-7 M/reaction soln., read-out: Inhibition Rate): 35.9% | inhibition at 0.01 µM ([7]; inhibitor 10^-8 M/reaction soln., read-out: Inhibition Rate): 0%
SMILES: O=C(O)c1cc(C(=O)O)c2c(n1)C(=O)C(=O)c1cc(C(=O)O)[nH]c1-2 [PQQ, pyrroloquinoline quinone]
effect on hydrocortisone-induced egg cataract ([5]; HC 0.12 mg on 15th day of incubation): evidently showed an effect of curing cataract | cataract estimation: number at Grade I [5, 8]: 2/8 | cataract estimation: number at Grade III [5, 8]: 4/8 | cataract estimation: number at Grade IV [5, 8]: 2/8 | cataract estimation: number at Grade I [5, 9]: 2/10 | cataract estimation: number at Grade III [5, 9]: 8/10 | cataract estimation: number at Grade II [5, 10]: 8/10 | cataract estimation: number at Grade III [5, 10]: 2/10 | cataract estimation: number at Grade I [5, 11]: 2/6 | cataract estimation: number at Grade II [5, 11]: 2/6 | cataract estimation: number at Grade III [5, 11]: 2/6 | cataract estimation: number at Grade A^- ([6]; 20 mg/Kg i.p. once a day): 4/4 | cataract estimation: number at Grade A^0 ([6]; 20 mg/Kg i.p. once a day): 2/2 | cataract estimation: number at Grade A^- ([6]; 30 mg/Kg p.o. once a day): 6/6 | cataract estimation: number at Grade A^0 ([6]; 30 mg/Kg p.o. once a day): 4/4 | nebula formation ([6]; 50%-galactose feed for seven days, both p.o. and i.p.): no such nebula formation was observed at all | change of cataract grade versus 50%-galactose feed group ([6]; 50%-galactose feed over ten days): improvement by two grades
